Where two headings read alike, the source gives them in different places.
Key:
[1] = pH 7.0; cited from earlier work
[2] = system: Langendorff perfused rat hearts; settings: cited from earlier work
[3] = system: heart; experiment: Arrest by esmolol on its own (applicant's finding); settings: esmolol 0.75 mmol/L on its own
[4] = system: Langendorff perfused rat heart; experiment: Reversibility of esmolol: treatment for 10 minutes then washout without ischaemia
Experimental: All the following experiments performed in a Langendorff perfused rat heart.
The first study is to determine the reversibility of esmolol at different concentrations after treatment with esmolol for 10 minutes then washout without ischaemia and LVDP was measured 9 minutes after starting the treatment and 3 minutes and 15 minutes after washing out the drug. The following doses were studied 0.03, 0.1, 0.3, 1, 3 mM. (n=5 each group)
It is therefore decided that esmolol concentration between 0.3 and 1 mM offers reasonable arresting effect with good reversibility profile.

[5] = cited from earlier work

Row | Structure (SMILES) | partition coefficient (octanol/water) [1] | reversibility of arrest ([2]; esmolol 0.75 mmol/L) | reversibility of arrest ([2]; esmolol 1.5 mmol/L) | esmolol concentration that can cause cardiac arrest ([2]; in-vitro studies) | induction of effective arrest [3] | reversibility (LVDP recovery) profile after washout ([4]; 0.3 mM compared with 1 mM esmolol) | esmolol concentration required to induce arrest ([4]; esmolol alone, doses 0.03, 0.1, 0.3, 1, 3 mM) | solubility in alcohol [5] | solubility in water [5]
1 | COC(=O)CCc1ccc(OCC(O)CNC(C)C)cc1.Cl (racemic) [Esmolol, (±)-Methyl p-[2-hydroxy-3-(isopropylamino)propoxy] hydrocinnamate hydrochloride] | 0.42 | easily reversible | slowly reversible with poor recovery | higher than 1 mmol/L | not sufficient to induce effective arrest | better reversibility (LVDP recovery) profile | 1 mM | freely soluble | very soluble
2 | Nc1ncnc2c1ncn2[C@@H]1O[C@H](CO)[C@@H](O)[C@H]1O [Adenosine, (2R,3R,4S,5R)-2-(6-amino-9H-purin-9-yl)-5-(hydroxymethyl)oxolane-3,4-diol] | – | – | – | – | – | – | – | practically insoluble | soluble
3 | CC(C)NCC(O)COc1cccc2ccccc12 (stereo not drawn) [propranolol] | 17.0 | – | – | – | – | – | – | – | –

From patent publication US10420786B2, “Compositions for use in cardioplegia comprising esmolol and adenosine” (AOP ORPHAN IP AG, priority 2009, dated 2019)
